# Measurements as given in US20030212118A1, “Treatment of eating disorders using carboxyalkylethers” (priority 2000, published 2003).
# Counter-ions that a name gives are not always drawn. Marks after values point to notes of the source that are not given here.
# How the values were obtained:
# [1] = Evaluation of CI-1027 in female obese Zucker rats (body weight and liver weight); assay type: in vivo; details: for Body Weight Day 0: Day 0 (baseline), mean ± SEM; for Body Weight Day 0 / Body Weight Day 7 / Body Weight Day 14 / Body Weight Day 21 / Body Weight Day 28 / Body Weight Day 32 / Liver Weight Day 32 / Percent Liver/Body Weight: n = 6; for Body Weight Day 7: Day 7, mean ± SEM; for Body Weight Day 14: Day 14, mean ± SEM; for Body Weight Day 21: Day 21, mean ± SEM; for Body Weight Day 28: Day 28, mean ± SEM; for Body Weight Day 32 / Liver Weight Day 32 / Percent Liver/Body Weight: Day 32, mean ± SEM
# Experimental: Adult female obese Zucker rats weighing 265 to 268 g were obtained from Genetic Models, Inc. The animals were maintained on a diet of pelleted rodent chow (Ralston Purina) and were given water ad libitum. The animals were housed in cages in a temperature controlled room, with a 12-hour light/12-hour dark cycle (lights were turned on at 6 AM each day). CI-1027 was suspended in a vehicle of 1.5% carboxymethylcellulose containing 0.2% Tween-20. A control group of six rats were dosed daily with vehicle alone. One group of six test animals received daily oral dosing (by gavage) of 2.5 mL/kg suspensions of CI-1027 at 30 mg/kg active drug, while another group of six animals received daily oral dosing of 2.5 mL/kg of suspension at 100 mg/kg of CI-1027. The pelleted rodent chow was available ad libitun, except on Days 0, 7, 14, 21, 28, and 32, when food was removed from the cages at 7:30 AM, and the animals were weighed within 2 hours following removal of the food. The food trays were replaced in the cages after the weights of all animals were measured.
# [2] = Evaluation of CI-1027 in leptin receptor deficient mice (body weight, food consumption); assay type: in vivo
structure (smiles),measurement,setting,value
"CC(C)(CCCCOCCCCC(C)(C)C(=O)O)C(=O)O [CI-1027, 6-(5-carboxy-5-methyl-hexyloxy)-2,2-diiethyl-hexanoic acid, calcium salt]",Body Weight Day 0,[1]; 30 mg/kg daily oral gavage,265 ± 4 g
same,Body Weight Day 7,[1]; 30 mg/kg daily oral gavage,283 ± 4^a g
same,Body Weight Day 14,[1]; 30 mg/kg daily oral gavage,299 ± 4^c g
same,Body Weight Day 21,[1]; 30 mg/kg daily oral gavage,311 ± 3^c g
same,Body Weight Day 28,[1]; 30 mg/kg daily oral gavage,317 ± 4^c g
same,Body Weight Day 32,[1]; 30 mg/kg daily oral gavage,321 ± 4^c g
same,Liver Weight Day 32,[1]; 30 mg/kg daily oral gavage,22.8 ± 1.0^c g
same,Percent Liver/Body Weight,[1]; 30 mg/kg daily oral gavage,7.09 ± 0.3^c Percent
same,Body Weight Day 0,[1]; 100 mg/kg daily oral gavage,265 ± 4 g
same,Body Weight Day 7,[1]; 100 mg/kg daily oral gavage,286 ± 3^a g
same,Body Weight Day 14,[1]; 100 mg/kg daily oral gavage,302 ± 4^b g
same,Body Weight Day 21,[1]; 100 mg/kg daily oral gavage,314 ± 4^c g
same,Body Weight Day 28,[1]; 100 mg/kg daily oral gavage,326 ± 5^c g
same,Body Weight Day 32,[1]; 100 mg/kg daily oral gavage,326 ± 5^c g
same,Liver Weight Day 32,[1]; 100 mg/kg daily oral gavage,24.8 ± 1.3^c g
same,Percent Liver/Body Weight,[1]; 100 mg/kg daily oral gavage,7.53 ± 0.3^c Percent
same,reduction in weight,"[1]; all treatment groups (30 and 100 mg/kg), over 32 days",significant reduction in weight
same,effect on body weight,[2],no significant effect
same,effect on food consumption,[2],no significant effect
